Measurements as given in the supplement of paper PMC10307832.

Legend:
Assay in all cases: relative viability (nuclei count vs DMSO), 5 days (fraction); higher = more cells survive
RO-3306 + Bortezomib = compound: C1=CC2=C(C=CC(=C2)C=C3C(=O)NC(=NCC4=CC=CS4)S3)N=C1 [RO-3306] + CC(C)C[C@H](NC(=O)[C@H](Cc1ccccc1)NC(=O)c1cnccn1)B(O)O [Bortezomib] (partner 0.002 µM)
Summary of the method: (§1)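 Relative viability was taken as the ratio of nuclei in treated wells to nuclei in vehicle wells. Lung cancer cell lines in 1536-well plates received compounds by pin tool one day after seeding, either one drug alone or a fixed anchor-drug dose plus five library-drug doses (not always all listed) in √10 steps. Nuclei were counted on 4× images after 5 days of treatment, and values are medians of duplicate plates.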

RO-3306 + Tozasertib = compound: C1=CC2=C(C=CC(=C2)C=C3C(=O)NC(=NCC4=CC=CS4)S3)N=C1 [RO-3306] + Cc1cc(Nc2cc(N3CCN(C)CC3)nc(Sc3ccc(NC(=O)C4CC4)cc3)n2)n[nH]1 [Tozasertib] (partner 0.1 µM)
Summary of the method: as §1

RO-3306 + Olaparib = compound: C1=CC2=C(C=CC(=C2)C=C3C(=O)NC(=NCC4=CC=CS4)S3)N=C1 [RO-3306] + O=C(c1cc(Cc2n[nH]c(=O)c3ccccc23)ccc1F)N1CCN(C(=O)C2CC2)CC1 [Olaparib] (partner 8 µM)
Summary of the method: as §1

[1] = compound: O=S(=O)(c1ccccc1)N(CC(F)(F)F)c1ccc(C(O)(C(F)(F)F)C(F)(F)F)cc1 + COc1cccc2cc(-c3nc([C@H]4CC[C@H](C(=O)O)CC4)n4ncnc(N)c34)[nH]c12 [OSI-027] (partner 0.5 µM)
Summary of the method: as §1

Cell Line | relative viability (RO-3306 + Bortezomib; first compound 0.01 µM) | relative viability (RO-3306 + Bortezomib; first compound 0.03162 µM) | relative viability (RO-3306 + Bortezomib; first compound 0.1 µM) | relative viability (RO-3306 + Bortezomib; first compound 0.3162 µM) | relative viability (RO-3306 + Bortezomib; first compound 1 µM) | relative viability (RO-3306 + Tozasertib; first compound 0.01 µM) | relative viability (RO-3306 + Tozasertib; first compound 0.03162 µM) | relative viability (RO-3306 + Tozasertib; first compound 0.1 µM) | relative viability (RO-3306 + Tozasertib; first compound 0.3162 µM) | relative viability (RO-3306 + Tozasertib; first compound 1 µM) | relative viability (RO-3306 + Olaparib; first compound 0.01 µM) | relative viability (RO-3306 + Olaparib; first compound 0.03162 µM) | relative viability (RO-3306 + Olaparib; first compound 0.1 µM) | relative viability (RO-3306 + Olaparib; first compound 0.3162 µM) | relative viability (RO-3306 + Olaparib; first compound 1 µM) | relative viability ([1]; first compound 0.8 µM) | relative viability ([1]; first compound 2.53 µM) | relative viability ([1]; first compound 8 µM)
BEN | 0.795 | 0.724 | 0.867 | 0.849 | 0.747 | 0.548 | 0.47 | 0.622 | 0.608 | 0.496 | 1.09 | 0.893 | 1.01 | 1.16 | 1.02 | 0.344 | 0.266 | 0.308
NCI-H1623 |  |  |  |  |  | 0.45 | 0.409 | 0.442 | 0.446 | 0.391 |  |  |  |  |  | 0.469 | 0.389 | 0.484
NCI-H661 | 0.817 | 0.738 | 0.84 | 0.829 | 0.935 | 0.333 | 0.382 | 0.351 | 0.339 | 0.337 | 0.751 | 0.754 | 0.741 | 0.755 | 0.818 | 0.737 | 0.788 | 0.738
NCI-H2342 |  |  |  |  |  | 0.54 | 0.537 | 0.492 | 0.47 | 0.506 | 0.574 | 0.499 | 0.428 | 0.437 | 0.379 | 0.646 | 0.626 | 0.58
SW 1573 | 1.22 |  | 0.924 | 0.972 | 0.894 | 0.198 |  | 0.17 | 0.175 | 0.168 | 0.492 | 0.483 | 0.432 | 0.444 | 0.442 | 0.863 | 0.619 | 0.487
NCI-H1734 | 0.956 | 0.763 | 0.866 | 0.885 | 0.597 | 0.233 | 0.256 | 0.247 | 0.304 | 0.274 | 0.703 | 0.515 | 0.632 | 0.622 | 0.551 | 0.708 | 0.55 | 0.637
LC-2-ad | 1.1 | 0.976 | 0.965 | 1.09 | 0.712 | 0.433 | 0.404 | 0.44 | 0.485 | 0.404 | 0.703 | 0.663 | 0.719 | 0.693 | 0.712 | 0.876 | 0.889 | 0.827
NCI-H1651 | 0.887 | 0.877 | 0.923 | 0.853 | 0.858 | 0.713 | 0.589 | 0.755 | 0.57 | 0.446 | 0.177 | 0.168 | 0.181 | 0.174 | 0.177 | 0.742 | 0.793 | 0.703
IA-LM | 0.86 | 0.8 | 0.745 | 0.6 | 0.969 |  |  |  |  |  | 0.975 |  | 0.785 | 0.846 | 0.865 |  |  | 
NCI-H838 | 0.825 | 0.523 | 0.661 | 0.808 | 0.685 | 0.308 | 0.283 | 0.255 | 0.258 | 0.264 | 0.894 | 0.562 | 0.768 | 0.808 | 0.869 | 0.411 | 0.412 | 0.467
201T | 1.11 | 1.11 | 1.07 | 1.11 | 0.934 | 1 | 0.933 | 0.925 | 0.975 | 0.964 | 0.861 | 0.855 | 0.82 | 0.828 | 0.828 | 0.685 | 0.738 | 0.688
NCI-H1792 | 1.17 |  | 0.95 | 0.991 | 0.538 |  |  |  |  |  | 0.544 |  | 0.484 | 0.51 | 0.436 | 0.688 | 0.717 | 0.458
EBC-1 | 0.616 | 0.5 | 0.501 | 0.529 | 0.572 |  |  |  |  |  | 0.838 | 0.559 | 0.632 | 0.839 | 0.751 |  |  | 
NCI-H1793 |  |  |  |  |  | 0.313 | 0.344 | 0.338 | 0.283 | 0.291 | 0.686 |  | 0.789 | 0.893 | 0.954 | 0.292 | 0.188 | 0.207
LK-2 |  |  |  |  |  | 0.183 |  | 0.164 | 0.167 | 0.169 | 0.735 | 0.566 | 0.841 | 0.577 | 0.734 | 0.213 | 0.199 | 0.229
NCI-H358 |  |  |  |  |  | 0.0852 | 0.0922 | 0.103 | 0.102 | 0.101 | 0.779 | 0.485 | 0.583 | 0.596 | 0.468 | 0.743 | 0.751 | 0.543
Calu-6 | 1.07 | 1.06 | 1.05 | 0.995 | 1.01 |  |  |  |  |  | 0.568 | 0.576 | 0.599 | 0.611 | 0.604 |  |  | 
SK-MES-1 |  |  |  |  |  | 1.02 | 1 | 1.01 | 0.807 | 0.585 | 0.805 | 0.671 | 0.601 | 0.677 | 0.665 | 0.639 | 0.647 | 0.443
SW 900 |  |  |  |  |  | 0.659 | 0.474 | 0.444 | 0.438 | 0.329 | 0.96 | 0.809 | 0.72 | 0.789 | 0.807 | 0.52 | 0.519 | 0.591
NCI-H1944 |  |  |  |  |  | 0.235 | 0.25 | 0.234 | 0.259 | 0.242 | 0.443 | 0.439 | 0.346 | 0.414 | 0.433 | 0.423 | 0.385 | 0.401
NCI-H1395 |  |  |  |  |  | 0.635 | 0.681 | 0.749 | 0.696 | 0.643 | 0.503 | 0.488 | 0.491 | 0.425 | 0.408 | 0.512 | 0.57 | 0.579
A549 |  |  |  |  |  |  |  |  |  |  | 0.308 | 0.295 | 0.297 | 0.367 | 0.303 |  |  | 
NCI-H1648 |  |  |  |  |  | 0.406 |  | 0.558 | 0.362 | 0.478 | 0.679 |  | 0.927 | 0.767 | 0.885 | 0.248 | 0.254 | 0.185
NCI-H1703 | 0.646 | 0.261 | 0.349 | 0.203 | 0.289 |  |  |  |  |  | 0.387 | 0.38 | 0.387 | 0.389 | 0.429 |  |  | 
